Laboratory results as given in patent publication EP4775208A1, “USE OF PRMT5 INHIBITOR IN TREATMENT OF TUMORS OR CANCERS” (Apeiron Therapeutics (Hong Kong) Ltd., priority 2023, dated 2025).

Legend:
Format in all cases: cell-based
[1] = test system: HCT-116 MTAP(-/-) deficient cells; assay: Inhibition of proliferation of HCT-116 MTAP(-/-) deficient cells (Cell-Titer Glo); settings: 8 days
How it was run: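 Cells in log-phase growth, RPMI-1640 with 10% FBS, seeded and left overnight at 37°C, 5% CO2. Compound tested at 0–10,000 nM (10 points, 3-fold, 0.1% DMSO) for 8 days at 37°C, 5% CO2. Viability read by CellTiter-Glo luminescence.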

U87MG MTAP(-/-) cells = assay: Inhibition of proliferation of U87MG MTAP(-/-) cells (CellTiter-Glo); settings: cell proliferation, 6 days
Protocol: Test 7: Assay for Inhibitory Activity of Compounds against U87MG MTAP(-/-) Cell Proliferation
Materials and Cells: The U87MG MTAP(-/-) cell line was purchased from ATCC (USA). Cell culture media, fetal bovine serum (FBS), and penicillin-streptomycin were purchased from Thermo Fisher Scientific (USA). 384-well plates were purchased from PerkinElmer (USA). The CellTiter-Glo assay kit was purchased from Promega (USA).
Cell Culture: U87MG MTAP(-/-) cells were cultured in a medium supplemented with 10% fetal bovine serum (FBS) and 1% penicillin-streptomycin at 37°C with 5% CO2. Only cells in the logarithmic growth phase were used for experiments.
Cell Proliferation Inhibition Assay: The antiproliferative activity of the compounds against U87MG MTAP(-/-) cells was assessed using the CellTiter-Glo assay kit. Cell suspensions were adjusted to the appropriate density and seeded into 384-well plates at a volume of 40 µL per well, then incubated overnight at 37°C with 5% CO2. Compounds (40 nL) were added to each well to achieve final concentrations ranging from 0 to 10,000 nM (starting concentration 10,000 nM, 3-fold serial dilutions, 10 dose points), with a final DMSO concentration of […]. The cell plates were incubated at 37°C with 5% CO2 for 6 days. Subsequently, 40 µL of CellTiter-Glo reagent was added to measure cell viability. Paclitaxel was used as a control compound.

[2] = test system: HCT-116 MTAP wild-type cells; assay: Inhibition of proliferation of HCT-116 MTAP wild-type cells (Cell-Titer Glo); settings: 8 days
How it was run: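 MTAP wild-type HCT-116 cells were seeded, cultured overnight and then exposed to compound from 10,000 nM down in a 10-point, 3-fold series (0.1% DMSO). Plates were incubated 8 days at 37°C, 5% CO2. Proliferation was read by Cell-Titer Glo viability luminescence.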

4-amino-N-methyl-N-(6-(trifluoromethyl)-2, 3-dihydrobenzo[b]thi ophen-3-yl)imidazo[1, 5-a]quinoxaline-8-car boxamide [Example 43]
IC50 [1]: 22.4 nM
IC50 (U87MG MTAP(-/-) cells): 322 nM
IC50 [2]: 2990 nM

C[C@H]1OC[C@@H](N(C)C(=O)c2ccc3nc(N)c4cncn4c3c2)c2ccc(F)cc21 (single isomer, unassigned) [Example 96]
IC50 ([1]; Homo sapiens, HCT-116, 192 h): 6.6 nM
IC50 (U87MG MTAP(-/-) cells; Homo sapiens, U-87 MG, 144 h): 91.1 nM
IC50 ([2]; Homo sapiens, HCT-116, 192 h): 1260 nM

C[C@H]1OC[C@@H](N(C)C(=O)c2cc3c(cn2)nc(N)c2cncn23)c2ccc(C(F)(F)F)cc21 (single isomer, unassigned) [Example 98]
IC50 ([1]; Homo sapiens, HCT-116, 192 h): 1.4 nM
IC50 (U87MG MTAP(-/-) cells; Homo sapiens, U-87 MG, 144 h): 14.2 nM
IC50 ([2]; Homo sapiens, HCT-116, 192 h): 114 nM

CN(C(=O)c1ccc2nc(N)c3cncn3c2c1)[C@@H]1COc2cc(S(F)(F)(F)(F)F)ccc21 (single isomer, unassigned) [Example 104]
IC50 (U87MG MTAP(-/-) cells; Homo sapiens, U-87 MG, 144 h): 28.8 nM

C[C@H]1OC[C@@H](N(C)C(=O)c2ccc3nc(N)c4cncn4c3c2)c2ccc(C(F)(F)F)cc21 (single isomer, unassigned) [Example 106]
IC50 ([1]; Homo sapiens, HCT-116, 192 h): 3.5 nM
IC50 (U87MG MTAP(-/-) cells; Homo sapiens, U-87 MG, 144 h): 10 nM
IC50 ([2]; Homo sapiens, HCT-116, 192 h): 145 nM

Cc1cc2nc(N)c3cncn3c2cc1C(=O)N(C)[C@@H]1COc2cc(C(F)(F)F)ccc21 [Example 15, (S)-4-amino-N,7-dime thyl-N-(6-(trifluoromethyl)-2,3-dihydrobenzofuran-3-yl)imidazo[1 ,5-a]quinoxaline-8-car boxamide]
IC50 ([1]; Homo sapiens, HCT-116, 192 h): 3.5 nM
IC50 (U87MG MTAP(-/-) cells; Homo sapiens, U-87 MG, 144 h): 19.8 nM
IC50 ([2]; Homo sapiens, HCT-116, 192 h): 282 nM

CC1OC[C@@H](N(C)C(=O)c2ccc3nc(N)c4cncn4c3c2)c2ccc(-c3cnn(C)c3)cc21 (stereo partly drawn) [Example 22, 4-amino-N-methyl-N-((4S)-1-methyl-7-(1-methyl-1H-pyrazol-4-yl)isochroman-4-yl)i midazo[1,5-a]quinoxa line-8-carboxamide]
IC50 ([1]; Homo sapiens, HCT-116, 192 h): 5.1 nM
IC50 (U87MG MTAP(-/-) cells; Homo sapiens, U-87 MG, 144 h): 81.2 nM
IC50 ([2]; Homo sapiens, HCT-116, 192 h): 1690 nM

CN(C(=O)c1cc2c(cc1F)nc(N)c1cncn12)[C@@H]1COc2cc(-c3cnn(C(F)(F)F)c3)ccc21 [Example 33, (S)-4-amino-7-fluoro-N-methyl-N-(6-(1-(trifluoromethyl)-1H-pyrazol-4-yl)-2,3-dihydrobenzofuran-3-yl)imid azo[1,5-a]quinoxaline-8-carboxamide]
IC50 ([1]; Homo sapiens, HCT-116, 192 h): 15.1 nM
IC50 (U87MG MTAP(-/-) cells; Homo sapiens, U-87 MG, 144 h): 81.7 nM
IC50 ([2]; Homo sapiens, HCT-116, 192 h): 2660 nM

C[C@H]1OC[C@@H](N(C)C(=O)c2cc3c(cn2)nc(N)c2cncn23)c2ccc(C(F)(F)F)nc21 [Example 35, 4-amino-N-methyl-N-((5S,8R)-8-methyl-2-(trifluoromethyl)-5,8-dihydro-6H-pyrano[3,4-b]pyridin-5-yl)imida zo[1,5-a]pyrido[3,4-e] pyrazine-8-carboxamide]
IC50 ([1]; Homo sapiens, HCT-116, 192 h): 23.2 nM
IC50 (U87MG MTAP(-/-) cells; Homo sapiens, U-87 MG, 144 h): 34.8 nM
IC50 ([2]; Homo sapiens, HCT-116, 192 h): 2230 nM

CN(C(=O)c1cc2c(cc1C(F)(F)F)nc(N)c1cncn12)[C@@H]1COc2cc(C(F)(F)F)ccc21 [Example 36, (S)-4-amino-N-methy 1-7-(trifluoromethyl)-N-(6-(trifluoromethyl) -2,3-dihydrobenzofuran-3-yl)imidazo[1,5-a] quinoxaline-8-carbox amide]
IC50 ([1]; Homo sapiens, HCT-116, 192 h): 36 nM
IC50 (U87MG MTAP(-/-) cells; Homo sapiens, U-87 MG, 144 h): 343 nM
IC50 ([2]; Homo sapiens, HCT-116, 192 h): 5130 nM

CN(C(=O)c1cc2c(cc1F)nc(N)c1cncn12)[C@@H]1COc2cc(S(C)(=O)=O)ccc21 [Example 38, (S)-4-amino-7-fluoro-N-methyl-N-(6-(methylsulfonyl)-2,3-dihydrobenzofuran-3-yl)imi dazo[1,5-a]quinoxaline-8-carboxamide]
IC50 ([1]; Homo sapiens, HCT-116, 192 h): 30 nM
IC50 (U87MG MTAP(-/-) cells; Homo sapiens, U-87 MG, 144 h): 443 nM
IC50 ([2]; Homo sapiens, HCT-116, 192 h): 4060 nM

CN(C(=O)c1ccc2nc(N)c3c(Br)ncn3c2c1)[C@@H]1COc2cc(C(F)(F)F)ccc21 [Example 127, (S)-4-amino-3-bromo-N-methyl-N-(6-(trifluoromethyl)-2,3-dihydrobenzofuran-3-yl)imidazo[1,5-a]quinoxaline-8-carboxamide]
IC50 ([1]; Homo sapiens, HCT-116, 192 h): 100 nM
IC50 ([2]; Homo sapiens, HCT-116, 192 h): 9900 nM

CN(C(=O)c1ccc2nc(N)c3c(CO)ncn3c2c1)[C@@H]1COc2cc(C(F)(F)F)ccc21 [Example 128, (S)-4-amino-3-(hydroxymethyl)-N-methyl-N-(6-(trifluoromethyl)-2,3-dihydrobenzofuran-3-yl)imidazo[1,5-a]quinoxaline-8-carboxamide]
IC50 ([1]; Homo sapiens, HCT-116, 192 h): 26 nM
IC50 ([2]; Homo sapiens, HCT-116, 192 h): > 10000 nM

CN(C(=O)c1cc2c(cc1F)nc(N)c1cncn12)C1CSc2cc(C(F)(F)F)ccc21 (stereo not shown) [Example 129, 4-amino-7-fluoro-N-methyl-N-(6-(trifluoromethyl)-2,3-dihydrobenzo[b]thiophen-3-yl) imidazo[1,5-a]quinox aline-8-carboxamide]
IC50 ([1]; Homo sapiens, HCT-116, 192 h): 14.5 nM
IC50 ([2]; Homo sapiens, HCT-116, 192 h): 2680 nM

CN(C(=O)c1ccc2nc(N)c3c(C#N)ncn3c2c1)[C@@H]1COc2cc(C(F)(F)F)ccc21 [Example 131, (S)-4-amino-3-cyano-N-methyl-N-(6-(trifluoromethyl)-2,3-dihydrobenzofuran-3-yl)imidazo[1,5-a]quinoxaline-8-carboxamide]
IC50 ([1]; Homo sapiens, HCT-116, 192 h): > 3000 nM
IC50 ([2]; Homo sapiens, HCT-116, 192 h): > 10000 nM

CN(C(=O)c1ccc2nc(N)c3c(C(N)=O)ncn3c2c1)[C@@H]1COc2cc(C(F)(F)F)ccc21 [Example 132, (S)-4-amino-N8-methyl-N8-(6-(trifluoromethyl)-2,3-dihydrobenzofuran-3-yl)imidazo[1,5-a]quinoxaline-3,8-dicarboxamide]
IC50 ([1]; Homo sapiens, HCT-116, 192 h): > 3000 nM
IC50 ([2]; Homo sapiens, HCT-116, 192 h): > 10000 nM

(R)-4-amino-7-fluoro-N-methyl-N-(7-(1-(tri fluoromethyl)-1H-pyr azol-4-yl)chroman-4-ylimidazo[1,5-a]quin oxaline-8-carboxamid e [Example 113]
IC50 [1]: 88.1 nM
IC50 [2]: > 10000 nM

(R)-4-amino-N-(6-bromo-2,3-dihydrobenzofuran-3-yl)-N-cyclopropylimidazo[1,5-a]quinoxaline-8-carboxamide [Example 81]
IC50 [1]: 1790 nM
IC50 [2]: 2360 nM

(R)-4-amino-N-(6-cya no-2,3-dihydrobenzof uran-3-yl)-N-cyclopro pylimidazo[1,5-a]quin oxaline-8-carboxamid e [Example 91]
IC50 [1]: 2180 nM
IC50 [2]: > 20000 nM

(R)-4-amino-N-cyclo propyl-N-(6-(trifluoro methyl)-2,3-dihydrob enzofuran-3-yl)imidaz o[1,5-a]pyrido[3,4-e]p yrazine-8-carboxamid e [Example 87]
IC50 [1]: 9030 nM
IC50 [2]: 10800 nM

(R)-4-amino-N-cyclo propyl-N-(6-(trifluoro methyl)-2,3-dihydrob enzofuran-3-yl)imidaz o[1,5-a]quinoxaline-8 -carboxamide [Example 83]
IC50 [1]: 2640 nM
IC50 [2]: 4700 nM

(R)-4-amino-N-methy 1-N-(6-(pentafluoro-16 -sulfaneyl)-2,3-dihydr obenzofuran-3-yl)imi dazo[1,5-a]quinoxalin e-8-carboxamide [Example 103]
IC50 [1]: 931 nM
IC50 [2]: 6260 nM

(R)-4-amino-N-methy 1-N-(6-(trifluoromethy 1)-2,3-dihydrofuro[2,3 -b]pyridin-3-yl)imida zo[1,5-a]quinoxaline-8-carboxamide [Example 89]
IC50 [1]: > 3000 nM
IC50 [2]: > 10000 nM

(S)-4-amino-N-(6-(cy clopropylsulfonyl)-2,3 -dihydrobenzo[b]thio phen-3-yl)-N-methyli midazo[1,5-a]quinoxa line-8-carboxamide [Example 133]
IC50 [1]: 71.4 nM
IC50 [2]: > 10000 nM

(S)-4-amino-N-(6-bromo-2,3-dihydrobenzofuran-3-yl)-N-cyclopropylimidazo[1,5-a]quinoxaline-8-carboxamide [Example 82]
IC50 [1]: 52.9 nM
IC50 [2]: 1920 nM

(S)-4-amino-N-(6-chl oro-2,3-dihydrobenzo furan-3-yl)-N-methyli midazo[1,5-a]quinoxa line-8-carboxamide [Example 70]
IC50 [1]: 54 nM
IC50 [2]: 3890 nM

(S)-4-amino-N-(6-cya no-2,3-dihydrobenzof uran-3-yl)-N-cyclopro pylimidazo[1,5-a]quin oxaline-8-carboxamid e [Example 92]
IC50 [1]: 46.6 nM
IC50 [2]: 4750 nM

(S)-4-amino-N-cyclop ropyl-N-(6-(trifluoro methyl)-2,3-dihydrob enzofuran-3-yl)imidaz o[1,5-a]pyrido[3,4-e]p yrazine-8-carboxamid e [Example 88]
IC50 [1]: 24.1 nM
IC50 [2]: 1850 nM

(S)-4-amino-N-methy 1-N-(6-(trifluoromethy 1)-2,3-dihydrofuro[2,3 -b]pyridin-3-yl)imida zo[1,5-a]quinoxaline-8-carboxamide [Example 90]
IC50 [1]: 36.4 nM
IC50 [2]: > 10000 nM
